Entries after “also recorded” stand apart in the source; their conditions may differ.
Assays:
B16F10 cells [1] = assay: B16F10 subcutaneous tumor in C57BL mice, intratumoral injection; type: in vivo, mouse
Description: FIGS. 17A-17E are micrographs and graphs showing that C#3 prevents tumor growth. 2*106 B16F10 cells were injected to the left flank of C57BL mice. After three days different treatments, as indicated, were injected to the newly formed tumor. (17A) tumor size (mm3) was measured daily for each mouse. In the co-treatment, almost no change in tumor size was observed, in the first three days. (17B) representative images of three tumors from each treatment group. (17C) For each treatment the fold-change in the volume of each day was compared to day 0. […] (17D) The co-treated group presented less developed tumors, which comprised about 2-3% of mice weight. (17E) H&E staining of a representative tumor from each group. Number of mice for each group in this experiment: DMSO n=7, cisplatin n=10, cisplatin+c #3 n=10, c #3 n=9. SD=1. P-values were calculated by one-tailed t-test. C#3 prevents tumor growth. To test the effect of c #3 in-vivo, we used a […] mouse model of C57BL mice. B16F10 cells were injected to the mouse's left flank and allowed to form a subcutaneous tumor. Next, we injected directly to the tumor DMSO, cisplatin, cisplatin+c #3 1 mg/kg, or c #3 alone, and tumor size was measured each day, up to 6 days. […] DNA damage burden in these fast-growing tumors is high, and TLS inhibition using c #3 prevents repair and enhances cell death. […]

MAD2L2 = MAD2L2 (Homo sapiens, UniProt Q9UI95); assay: Field Effect Biosensing (FEB) binding assay; set-up: made in house; host or cells: E. coli BL21 Star
MAD2L2, sequence (Q9UI95 whole entry): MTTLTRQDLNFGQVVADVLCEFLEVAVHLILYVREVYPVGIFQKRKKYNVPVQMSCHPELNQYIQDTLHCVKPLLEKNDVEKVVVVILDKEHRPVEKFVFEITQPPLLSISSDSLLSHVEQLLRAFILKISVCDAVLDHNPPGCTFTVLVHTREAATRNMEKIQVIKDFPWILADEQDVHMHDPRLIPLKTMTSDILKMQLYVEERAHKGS
Description: E. coli BL21 Star cells were transfected with GST-MAD2L2 vector. Protein induction was done for 4 hours in 30° C., with 1 mM IPTG. Purification was done according to standard GST protocol.
The binding kinetics of MAD2L2 to the small molecule compounds were measured by the Field Effect Biosensing (FEB) Agile R100 label-free binding assay (Nanomedical Diagnostics Inc), following their standard protocol. Briefly, 500 nM of purified MAD2L2 was immobilized on a graphene sensor chip through amine groups. The current baseline level for the chip was recorded in PBS. Next, PBS was aspirated, and the changes in the baseline current induced by 50 μl of 1, 10, 20, 30, 40 and 50 μM droplets of the tested compound were recorded. KD values were calculated by the DataLine 2.0 software by either a Hill equation fit or by using the kon and koff values at a single concentration. The KD values obtained by these two methods were almost identical.
In order to validate that MAD2L2 is a direct target of c #2 and c #3, the inventors tested the compounds' binding kinetics to a recombinant protein by Field Effect Biosensing (FEB) technology. Briefly, purified GST-MAD2L2 was immobilized onto a graphite chip, and the current across the chip is measured to determine the baseline current. […] The Kon and Koff of the interaction were measured over time and were used to calculate the KD. […]

B16F10 cells [2] = assay: Colony survival assay, B16F10 cells; type: cell-based, mouse
Description: (14B) Colony survival assay of H1975 cell line. (14C) Colony survival assay of A549 cell line. (14D) Colony survival assay of B16F10 cell line. All cell lines were treated with 50 μM c #3 and the indicated concentration of cisplatin for 48 h, then growth media was replaced with normal growth media with no compound. Cells were allowed to recover 4-5 days before staining. For all cell lines, colony survival assay n=3 independent experiments, SD=1. P value was calculated by two-way ANOVA multiple comparison. IC50 was calculated using linear regression for H1975 and A549, and sigmoidal regression for B16F10.
Colony survival assay to compare the relative survival rate of cells treated with cisplatin alone, or with combined treatment of cisplatin and 50 μM of compound 3 (see FIG. 1). Molecule presented preliminary promising results, We tested compound 3 (c #3) on different cancer cell lines: two lung cancer cell lines, (1) human non-small cell lung carcinoma H1975 cells, (2) epithelial lung adenocarcinoma A549 cells, and (3) mouse aggressive melanoma B16F10 cells.

MAD2L2-Rev1 complex = MAD2L2-Rev1 complex (Homo sapiens, UniProt Q9UI95); assay: Proximity ligation assay (PLA) of MAD2L2-Rev1 binding; type: cell-based
MAD2L2-Rev1 complex, sequence (Q9UI95 whole entry, one chain of several): as the sequence (Q9UI95 whole entry) above
Description: FIG. 16 is a bar graph showing that c #3 reduces Rev1-MAD2L2 interaction. PLA on cells treated with 10 μM cisplatin and 100 μM of c #3 for 24 h. In each analyzed field, cells and foci were counted separately and the ratio of foci/cell was calculated. Each dot represents the average of foci/cell in one analyzed field. SD=1. The P-value was calculated by a one-tailed t-test.
#3 disturbs MAD2L2-Rev1 complex formation. Detection of MAD2L2-Rev1 binding using the proximity ligation assay (PLA), which allows endogenous detection of protein-protein interactions. To enrich for MAD2L2-Rev1 foci, cells were co-treated with 10 μM cisplatin and 100 μM c #3 for 24h. Next, the PLA reaction was performed and foci, representing the MAD2L2-Rev1 complex, were counted.

Cc1oc(-c2ccco2)nc1CC(=O)N[C@@H](C(=O)O)c1ccccc1 [Compound 3]
tumor growth (tumor volume, fold-change), co-treatment (B16F10 cells [1]; cisplatin 1 mg/kg + c #3 1 mg/kg injected into the tumor, listed as c #3): prevented tumor growth in the first three days; also recorded: significant growth inhibition when compared to all treatments | tumor histopathology (H&E), co-treatment (B16F10 cells [1]; cisplatin + c #3 co-treated, two tumors from each group): severe necrosis | affinity to MAD2L2 compared with c #2 (MAD2L2; from FEB KD values, listed as c #3): approximately seven-fold higher; also recorded: sevenfold higher | Kd (MAD2L2; purified GST-MAD2L2 immobilized on chip, 1-50 μM compound): 44.9 µM | toxicity, compound alone (B16F10 cells [2]; B16F10, 50 μM compound alone): caused no toxicity | sensitization to cisplatin (B16F10 cells [2]; B16F10, cisplatin + 50 μM c #3, 48 h): sensitization to cisplatin treatment | ratio of MAD2L2-Rev1 PLA foci per cell, co-treatment (MAD2L2-Rev1 complex; 10 μM cisplatin + 100 μM c #3, 24 h, compared to cisplatin alone): reduced ratio of foci per cell | MAD2L2-Rev1 complex formation (PLA), c #3 alone (MAD2L2-Rev1 complex; c #3 alone compared to DMSO): no effect on complex formation when DNA-damage is not induced

Source: US20250255876A1, “COMPOSITIONS AND METHODS FOR CANCER TREATMENT” (ARIEL SCIENTIFIC INNOVATIONS LTD., priority 2021, published 2025)
